Consider 1 substance from US20110275637A1, “PIPERAZINE DERIVATIVES AND THEIR USE AS LEPTIN RECEPTOR MODULATORS” (priority 2008, published 2011).

In test [1] the test system is JEG-3 cells. Kind of test: JEG-3 protocol: [3H]-thymidine incorporation / proliferation (leptin assay in non-recombinant system). As to conditions: FIG. 6. The format is cell-based. An excerpt:
Leptin Assay in Non-Recombinant System
It seems that overexpression of the receptor (as well as the possibility for different drugs to act on different parts of the signaling pathway triggered by leptin association with its receptor) results in most cases in the absence of activity of the drugs tested.
The leptin receptor expression in non-recombinant system is often fluctuating and care must be given to identify a system where signal stability remains within experiments. Using such a system, leptin receptor antagonist mimetics could be identified by evaluating is their action vs. leptin (see below).
Leptin is produced chiefly in adipose cells, but in humans, mRNA encoding leptin is also present in the placenta. Here, leptin might play an important proliferative role in the microvasculature. The possibility to use this hypothesis in a native cell line was evaluated.
In JEG-3 cells (choriocarcinoma cell line) leptin is able to stimulate proliferation up to 3 fold (Biol. Reprod. (2007) 76: 203-10). […] The radioactivity incorporated by the cells is an index of their proliferative activity and is measured in counts per minute (CPM) with a liquid scintillation beta counter. […]

Test [2] deals with JEG-3 cells. Particulars: Biol. Reprod. (2007) 76: 203-10; cited from earlier work.

Turning to “Leptin: a hormone synthesized in fat cells that is believed to act in the hypothalamus to reduce food intake and body weight”, the EC50 in test [1] (JEG-3 cells (choriocarcinoma cell line), read-out: EC50, concentration-dependent increase in [3H]-thymidine incorporation) amounted to 2.1 nM. Also, the “concentration of maximal effect on [3H]-thymidine incorporation” value in test [1] (JEG-3 cells) turned out to be 100 nM. For the same substance, the stimulation of proliferation entry in test [2] is recorded as “up to 3 fold”.
